Experiments:
CYP2C9 = target: T1, CYP2C9 (Homo sapiens, UniProt P11712); assay: Cytochrome P450 enzyme assay, CYP2C9 (Gentest Supersomes, fluorometric); assay type: in vitro ADME; conditions: human recombinant enzyme, mean IC50; read-out: CP450 2C9 IC50
T1 construct: purchased Gentest Corporation P258
Description: (§1) In vitro assays to determine the concentration of the compounds provided herein required for 50% inhibition of substrate metabolism (IC50) by different human cytochrome P450 enzymes (2C9, 2C19, 3A4) were conducted using human recombinant cytochrome P450 enzyme assays, developed by Gentest Corporation. These assays contain Gentest Supersomes™ (specific human cytochrome P450 enzyme, co-expressed with P450 reductase and cytochrome b5), a NADPH regenerating system, substrate and a concentration range of the compounds provided herein. The fluorescent product was the measured end point for these assays. IC50s were calculated using a four-parameter logistic equation with the bottom fixed at 0% inhibition and the top fixed at 100% inhibition. (Values are the mean IC50±SD when n is greater than 1.)
(§2) Assays were conducted in 96-well microtiter plates using fluorometric assays developed by Gentest Corporation. The 12 wells in each row were used for one inhibition curve. Wells 1 to 8 contained serial 1:3 dilutions of the test compound. Wells 9 to 12 contained no inhibitor and wells 11 and 12 were blanks for background fluorescence (stop solution was added before the enzyme). All concentration curves were performed in duplicate. Incubations were initiated by the addition of enzyme and substrate to the pre-warmed reaction mixture. After a specific incubation period, the reaction was stopped by the addition of stop solution. Metabolite production per well was determined by measuring fluorescence using a fluorescent plate reader. Detailed experimental procedures for each enzyme are listed below. See, generally, Methodology of a high throughput method for measuring cytochrome P450 inhibition (Gentest Corporation, Technical Bulletin); Crespi, C. L.; Miller, V. P.; and Penman, B. W. (1997) Anal. Biochem. 248:188-190; and Geungerich, F. P. (1997) Adv. Pharm. 43:7-35.
A 0.2 ml/well reaction mixture containing 2 pmol CYP2C9 (P258), 1.3 mM NADP^+, 3.3 mM glucose-6-phosphate, 3.3 mM magnesium chloride, 0.4 U/ml glucose-6-phosphate dehydrogenase and 75 μM 7-methoxy-4-trifluoromethylcoumarin in […] (pH 7.4), was incubated at 37° C. for 45 minutes. Sulfaphenazole, a standard inhibitor of CYP2C9, was serially diluted from the highest concentration of 10 μM and acted as a positive control. […] After incubation, the reaction was stopped by the addition of 75 μl stop solution (80% acetonitrile/20% 0.5 M Tris base) and fluorescence/well was measured using a Spectra Fluor (Tecan) or Cytoflour 2350 (Millipore) fluorescent plate reader. […]
(§3) The “% inhibition” was calculated as follows: [formula]
(§4) Concentration versus % inhibition curves were constructed in Prism (GraphPad, Inc.). The data was analyzed using “Top & Bottom Fixed” routine. […]

[1] = system: rats exposed to acute hypoxia; assay: Acute hypoxia model, mean pulmonary arterial pressure (MPAP) increase; conditions: in vivo model, rat
Description: The chamber was gassed by adding N2 to the chamber intermittently from a liquid N2 reservoir. A baralyme (Allied Health Care Products, St. Louis, Mo., USA) CO2 scrubber kept the CO2 concentration <0.2%. Relative humidity within the chamber was kept <70% with anhydrous CaSO4. Boric acid was used to keep NH3 levels within the chamber at a minimum. See, Tilton et al. (2000) Pulm. Pharm. Ther. 13:87-97. In the initial experiment, effects of a test compound were assessed on mean pulmonary arterial pressure (MPAP) of rats subsequently exposed to acute hypoxia 90 min in duration. […] All catheters were connected to polyethylene (PE 20) tubing, and were exteriorized at the back of the neck by a stainless steel wire (0.018 in. diam) tunneled subcutaneously. Two days later, MPAP was recorded through the femoral and pulmonary arterial cannulas via transducers coupled to a polygraph recorder. […] Pulmonary pressure rapidly returned toward baseline values when this group was returned to room air at the end of the experiment.

CYP2C19 = target: T2, CYP2C19 (Homo sapiens, UniProt P33261); assay: Cytochrome P450 enzyme assay, CYP2C19 (Gentest Supersomes, fluorometric); assay type: in vitro ADME; conditions: human recombinant enzyme, mean IC50; read-out: CP450 2C19 IC50
T2 construct: purchased Gentest Corporation P259
T2 sequence (P33261 whole entry): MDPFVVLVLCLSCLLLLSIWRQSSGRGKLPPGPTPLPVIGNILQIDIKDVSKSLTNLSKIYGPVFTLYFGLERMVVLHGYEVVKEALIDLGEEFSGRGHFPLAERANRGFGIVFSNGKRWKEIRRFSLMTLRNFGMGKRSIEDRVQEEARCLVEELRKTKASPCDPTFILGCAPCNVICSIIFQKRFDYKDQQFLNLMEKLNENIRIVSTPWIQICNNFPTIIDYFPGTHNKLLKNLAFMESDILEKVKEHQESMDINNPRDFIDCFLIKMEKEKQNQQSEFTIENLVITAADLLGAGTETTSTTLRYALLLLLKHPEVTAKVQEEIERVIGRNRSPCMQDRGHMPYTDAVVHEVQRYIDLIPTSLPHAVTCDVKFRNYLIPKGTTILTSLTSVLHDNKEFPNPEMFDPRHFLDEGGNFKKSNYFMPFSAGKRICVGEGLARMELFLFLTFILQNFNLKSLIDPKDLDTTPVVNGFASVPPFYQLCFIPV
Description: as §1, §2
A 0.2 ml/well reaction mixture containing 1 pmol CYP2C19 (P259), 1.3 mM NADP^+, 3.3 mM glucose-6-phosphate, 3.3 mM magnesium chloride, 0.4 U/ml glucose-6-phosphate dehydrogenase and 25 μM 3-cyano-7-ethoxycoumarin in 50 mM potassium phosphate (pH 7.4), was incubated at 37° C. for 45 minutes. Tranylcypromine, a standard inhibitor of CYP2C19, was serially diluted from the highest concentration of 500 μM and acted as a positive control. The test compound was serially diluted from the highest concentration of 100 μM. After incubation, the reaction was stopped by the addition of 75 μl stop solution (80% acetonitrile/20% 0.5 M Tris base) and fluorescence/well was read within 1 hour using a Spectra Fluor (Tecan) fluorescent plate reader. […]
as §3, §4

[2] = system: DOCA-salt hypertensive rat; assay: Deoxycorticosterone acetate (DOCA)-salt hypertensive rat model; conditions: in vivo
Description: Selected compounds disclosed herein have been tested for activity in the deoxycorticosterone acetate (DOCA)-salt hypertensive rat model. To perform these tests, silastic MDX4-4210 elastomer implants containing 47 mg (DOCA) were prepared according to the method of Ornmsbee et al. ((1973) the J. Pharm. Sci. 62:255-257). Briefly, DOCA is incorporated into silicon rubber implants for sustained release. To prepare the implants the DOCA is incorporated into unpolymerized silicone rubber, catalyst is added and the mixture is cast in a hemicylindrical shape.
Sprague Dawley rats (7-8 weeks old) were unilaterally nephrectomized under ketamine anesthesia and a DOCA-implant was placed on the left lateral dorsal abdomen of the animal. The rats were allowed to recover for three weeks. During recovery they were permitted free access to normal rat chow and 0.9% NaCl drinking solution in place of drinking water. The rats develop hypertension within 3 weeks. […]
On the day of experimentation, catheters were inserted under brevital anesthesia into the right femoral artery for measurement of blood pressure, and into the right femoral vein for administration of a selected compound. The animals were placed in a restrainer and allowed to recover for a minimum of 60 min or until a steady mean arterial blood pressure was recorded. […] Blood pressure was recorded continuously for a further 10 hrs.

T1 sequence (P11712 whole entry): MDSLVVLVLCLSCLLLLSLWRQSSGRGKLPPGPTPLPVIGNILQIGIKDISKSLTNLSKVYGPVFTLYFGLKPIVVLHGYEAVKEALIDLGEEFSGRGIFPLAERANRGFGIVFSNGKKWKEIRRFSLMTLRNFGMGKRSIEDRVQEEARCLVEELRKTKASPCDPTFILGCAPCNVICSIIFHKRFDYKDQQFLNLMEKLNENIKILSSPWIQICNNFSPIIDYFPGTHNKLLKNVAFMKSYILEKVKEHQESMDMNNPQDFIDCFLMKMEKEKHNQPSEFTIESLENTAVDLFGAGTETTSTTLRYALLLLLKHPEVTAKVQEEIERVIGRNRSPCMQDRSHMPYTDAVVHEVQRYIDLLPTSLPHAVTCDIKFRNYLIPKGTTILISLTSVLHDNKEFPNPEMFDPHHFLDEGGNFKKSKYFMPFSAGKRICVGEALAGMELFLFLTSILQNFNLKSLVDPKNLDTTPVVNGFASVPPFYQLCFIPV

Compound	IC50 (CYP2C9)	Acute Hypoxia: dose to achieve 50% inhibition of mean pulmonary artery pressure increase ([1]; listed as N-(2-acetyl-4,6-dimethylphenyl)-3-{[(3,4 dimethyl-5-isoxazolyl)amino]-sulfonyl}-)	Acute Hypoxia: dose to achieve 50% inhibition of mean pulmonary artery pressure increase ([1]; listed as N-(2-acetyl-4,6-dimethylphenyl)-3-{[(3,4 dimethyl-5-isoxazolyl)amino]sulfonyl}-2)	IC50 (CYP2C19)	effect on blood pressure in the hypertensive rat model [2]	Acute Hypoxia: dose to achieve 50% inhibition of mean pulmonary artery pressure increase [1]	melting point
CC(=O)c1cc(C)cc(C)c1NC(=O)c1sccc1S(=O)(=O)Nc1onc(C)c1C [Compound 7, N-(2-acetyl-4,6-dimethylphenyl)-3-{[(3,4 dimethyl-5-isoxazolyl)amino]sulfonyl}-2-thiophenecarboxamide]	7.6 µM	1 mg/kg	approximately 1 mg/kg	126 µM	effective in decreasing blood pressure		
Cc1cc2c(cc1CC(=O)c1sccc1S(=O)(=O)Nc1onc(C)c1Cl)OCO2 [N-(4-chloro-3-methyl-5-isoxazolyl)-2-{[3,4-(methylenedioxy)-6-methylphenyl)acetyl]-thiophene-3-sulfonamide, reference compound]	0.03 µM			0.2 µM		2.5 mg/kg	
Cc1cc(C)c(NC(=O)c2sccc2S(=O)(=O)Nc2onc(C)c2Cl)c(Cl)c1 [Compound 34, N-(2-chloro-4,6-dimethylphenyl)-3-{[(4-chloro-3-methyl-5-isoxazolyl)amino]sulfonyl}2-thiophenecarboxamide]	0.56 µM			4.6 µM			174 to 176 °C
Cc1cc(C)c(NC(=O)c2sccc2S(=O)(=O)Nc2onc(C)c2Cl)c(S(C)(=O)=O)c1 [Compound 42, 3-{[(4-chloro-3-methyl-5-isoxazolyl)amino]sulfonyl)-N-[2,4-dimethyl-6-(methylsulfonyl)phenyl]-2-thiophenecarboxamide]	5.3 µM			6.2 µM			208 to 210 °C

Reference: US6686382B2, “Sulfonamides and derivatives thereof that modulate the activity of endothelin” (Encysive Pharmaceuticals Inc., priority 1999, dated 2004)
